Data taken from patent US9981940B2, “Aryl sulfide derivatives and aryl sulfoxide derivatives as acaricides and insecticides” (BAYER CROPSCIENCE AKTIENGESELLSCHAFT, priority 2013, dated 2018).

How the values were obtained:
Tetranychus urticae = Tetranychus urticae spray test, OP-resistant (TETRUR); assay type: in vivo; details: application rate of 500 g/ha, after 6 days; for pest or weed control at 500 g/ha: Tetranychus urticae, 144 h, read-out: efficacy
Procedure, shortened: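 Bean leaf discs infested with all stages of an OP-resistant Tetranychus urticae strain sprayed with compound in acetone/DMF with alkylaryl polyglycol ether emulsifier, diluted in water. Efficacy in % scored after 6 days; 100% means all mites killed.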

[1] = log P by HPLC (OECD Guideline 117), method [a] acidic range; assay type: physicochemical; details: for chromatographic logP: reversed-phase C18 HPLC column, acidic range; for logP[a]: HPLC, method [a] acidic range
Method: (§1) The log P values were determined analogously to OECD Guideline 117 (EC Directive 92/69/EEC) by HPLC (high-performance liquid chromatography) using reversed-phase columns (C 18), by the following methods:
[a] The LC-MS determination in the acidic range is effected at pH 2.7 with 0.1% aqueous formic acid and acetonitrile (contains 0.1% formic acid) as eluents; linear gradient from 10% acetonitrile to 95% acetonitrile.

[2] = log P by HPLC (OECD Guideline 117), method [b] neutral range; assay type: physicochemical; details: HPLC; for chromatographic logP: reversed-phase C18 HPLC column, neutral range, pH 7.8; for logP[b]: method [b] neutral range
Method: as §1
[b] The LC-MS determination in the neutral range is effected at pH 7.8 with 0.001 molar aqueous ammonium hydrogencarbonate solution and acetonitrile as eluents; linear gradient from 10% acetonitrile to 95% acetonitrile.

[3] = pH 2.7, HPLC method [a], read-out: logP[a]
[4] = pH 2.7, HPLC, pH 2.7, read-out: log P[a]

| chromatographic logP [1, 3] | chromatographic logP [1, 4] | chromatographic logP [2] | logP[a] [1] | logP[b] [2] | SMILES | pest or weed control at 500 g/ha (Tetranychus urticae) | efficacy (Tetranychus urticae) |
| --- | --- | --- | --- | --- | --- | --- | --- |
| – | – | – | 3.81 | 3.78 | Cc1cc(C)c(-n2nnn(C(C)C)c2=O)cc1SCC(F)(F)F [Example 298] | – | 100% |
| – | – | – | 3.94 | 3.92 | CCCc1nn(-c2cc(SCC(F)(F)F)c(C)cc2F)c(=O)o1 [Example 460] | – | 100% |
| – | – | – | 5.11 | 5.02 | CCCCOc1nn(-c2ccc(C)c(SCC(F)(F)F)c2)c(=O)n1C1CC1 [Example 126] | – | 90% |
| – | – | – | 3.91 | 3.86 | CCSc1nn(-c2cc(SCC(F)(F)F)c(C)cc2F)c(=O)n1CC [Example 292] | – | 100% |
| – | – | – | 3.86 | 3.80 | Cc1cc(F)c(-n2nc(N(C)C)n(C3CC3)c2=O)cc1SCC(F)(F)F [Example 416] | – | 90% |
| – | – | – | 3.84 | 3.79 | CCn1c(OCC(F)(F)F)nn(-c2cc(SCC(F)(F)F)c(C)cc2F)c1=O [Example 398] | – | 100% |
| – | – | – | 4.19 | 4.04 | CCOc1nn(-c2ccc(C)c(SCC(F)(F)F)c2)c(=O)n1C1CC1 [Example 122] | – | 100% |
| – | – | – | 3.53 | 3.44 | CCn1c(SC)nn(-c2cc(SCC(F)(F)F)c(C)cc2F)c1=O [Example 269] | – | 100% |
| – | – | – | 3.77 | 3.74 | CCOc1nn(-c2ccc(C)c(SCC(F)(F)F)c2)c(=O)n1C [Example 130] | – | 90% |
| – | – | – | 4.66 | 4.57 | CCCOc1nn(-c2ccc(C)c(SCC(F)(F)F)c2)c(=O)n1C1CC1 [Example 123] | – | 100% |

Continued, compound first:

| SMILES | chromatographic logP [1, 3] | chromatographic logP [1, 4] | chromatographic logP [2] | logP[a] [1] | logP[b] [2] | pest or weed control at 500 g/ha (Tetranychus urticae) | efficacy (Tetranychus urticae) |
| --- | --- | --- | --- | --- | --- | --- | --- |
| CCn1ccn(-c2cc([S+]([O-])CC(F)(F)F)c(C)cc2F)c1=O (stereo not drawn) [Example 487, 1-Ethyl-3-{2-fluoro-4-methyl-5-[(2,2,2-trifluoroethyl)sulphinyl]phenyl}-1,3-dihydro-2H-imidazol-2-one] | 1.83 | 1.83 | 1.81 | – | – | 90% | – |
| Cc1cc(F)c(-n2nc(OC3CCCCC3)n(C)c2=O)cc1[S+]([O-])CC(F)(F)F (stereo not drawn) [Example 164] | – | – | – | 3.29 | 3.22 | – | 90% |
| Cc1cc(C)c([S+]([O-])CC(F)(F)F)cc1-n1ncn(Cc2ccccc2)c1=O (stereo not drawn) [Example 374] | – | – | – | 2.50 | 2.47 | – | 90% |
| COC1=CC(=O)N(c2cc(SCC(F)(F)F)c(C)cc2F)C1 [Example 310, 1-{2-Fluoro-4-methyl-5-[(2,2,2-trifluoroethyl)sulphanyl]phenyl}-4-methoxy-1,5-dihydro-2H-pyrrol-2-one] | 2.87 | 2.87 | 2.81 | – | – | 100% | – |
| Cc1cc(F)c(-n2nc(C3CC3)n(C(C)C)c2=O)cc1SCC(F)(F)F [Example 347] | – | – | – | 3.70 | 3.63 | – | 100% |
| COCCc1nn(-c2cc([S+]([O-])CC(F)(F)F)c(C)cc2F)c(=O)n1C1CC1 (racemic) [Example 76] | – | – | – | 2.03 | 1.97 | – | 100% |
| Cc1cc(F)c(-n2nnn(-c3ccc(Cl)cc3)c2=O)cc1SCC(F)(F)F [Example 306, 1-(4-Chlorophenyl)-4-{2-fluoro-4-methyl-5-[(2,2,2-trifluoroethyl)sulphanyl]phenyl}-1,4-dihydro-5H-tetrazol-5-one] | 4.75 | 4.75 | 4.59 | – | – | 100% | – |
| COc1nn(-c2cc([S+]([O-])CC(F)(F)F)c(C)cc2F)c(=O)n1C(C)C (stereo not drawn) [Example 413] | – | – | – | 2.44 | 2.40 | – | 90% |
| COc1nn(-c2cc([S+]([O-])CC(F)(F)F)c(F)cc2F)c(=O)n1C (stereo not drawn) [Example 169] | – | – | – | 1.81 | 1.77 | – | 90% |
